Assay results: patent US9067937B2 (priority 2012, dated 2015)
Several values for one entry are separate records, joined by “and”; a condition that tells them apart may be missing. Equal entries are not always repeated. Structures can show the parent of a compound that is named as a salt. Where two headings read alike, the source gives them in different places.

Key:
[1] = system: HT1197 cells; assay: Cell-based assay, anti-proliferative activity, MELK-negative control (Cell Counting Kit-8, 72 hours); parameters: species or system human
Method: 100 micro-L of cell suspension was seeded onto 96-well microtiter plate (ViewPlate-96FTC, PerkinElmer). The initial cell concentration of 22Rv1, T47D, A549, DU4475, and HT1197 were 3,000 cells/well, 2,000 cells/well and 2,500 cells/well, respectively. Cellular growth was determined using Cell Counting Kit-8 (DOJINDO) at 72 hours after the exposure of the candidate inhibitors. […] Accurate IC50 values were calculated as described previously.

[2] = system: PC-14 xenografts; assay: Xenograft model antitumor assay (MELK-negative); type: in vivo, mice; conditions: PC-14 (MELK hardly detectable), 10 mg/kg oral once a day, 14 days
[3] = system: MDA-MB-231 xenografts; assay: Xenograft model antitumor assay; parameters: species or system mice; conditions: mouse, in vivo; dihydrochloride
[4] = system: T47D cells; assay: Cell-based assay, anti-proliferative activity (Cell Counting Kit-8, 72 hours); parameters: species or system human
In short: (§1)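 Cells seeded at 2,000–3,000 cells/well and exposed to candidate MELK inhibitors for 72 hours; growth measured with Cell Counting Kit-8. IC50 values calculated from the growth read-out.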

[5] = system: 22Rv1 cells; assay: as above; parameters: species or system human
In short: as §1

[6] = system: DU4475 cells; assay: as above; parameters: species or system human
In short: as §1

[7] = system: A549 cells; assay: as above; parameters: species or system human
In short: as §1

[8] = system: MIAPaCa-2 xenografts; assay: Xenograft model antitumor assay; parameters: species or system mice; conditions: mouse, in vivo
[9] = system: DU145 xenografts; assay: Xenograft model antitumor assay; parameters: species or system mice; conditions: mouse, in vivo
[10] = target: MELK (Homo sapiens, UniProt Q14680); assay: Kinase assay (IMAP fluorescence polarization, FITC-labeled histone H3 peptide); type: biochemical; conditions: 50 micro-M ATP
Chain of MELK (Q14680 whole entry, looked up): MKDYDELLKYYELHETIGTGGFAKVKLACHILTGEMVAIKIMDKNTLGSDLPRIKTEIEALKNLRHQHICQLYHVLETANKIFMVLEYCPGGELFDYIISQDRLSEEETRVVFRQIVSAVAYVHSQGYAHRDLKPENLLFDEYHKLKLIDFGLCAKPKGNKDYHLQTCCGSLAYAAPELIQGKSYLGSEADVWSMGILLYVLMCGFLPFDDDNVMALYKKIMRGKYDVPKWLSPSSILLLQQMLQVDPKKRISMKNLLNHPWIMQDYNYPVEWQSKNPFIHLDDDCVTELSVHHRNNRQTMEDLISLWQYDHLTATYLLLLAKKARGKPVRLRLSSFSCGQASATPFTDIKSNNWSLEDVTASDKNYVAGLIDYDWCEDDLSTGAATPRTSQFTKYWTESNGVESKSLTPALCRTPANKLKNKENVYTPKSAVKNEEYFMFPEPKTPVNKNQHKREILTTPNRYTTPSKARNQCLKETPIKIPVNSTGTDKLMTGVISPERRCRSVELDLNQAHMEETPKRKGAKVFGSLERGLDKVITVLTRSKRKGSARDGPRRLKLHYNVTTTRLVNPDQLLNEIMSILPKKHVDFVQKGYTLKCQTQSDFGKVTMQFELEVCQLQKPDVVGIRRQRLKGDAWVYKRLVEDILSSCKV
In short: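 Kinase (0.8 ng/μL) reacted with 100 nM FITC-histone H3 peptide and 50 μM ATP in 20 mM HEPES, 0.3 mM MgCl2, 2 mM DTT, 0.01% Tween-20, pH 7.4, for 1 hour at room temperature. Phosphorylation read by IMAP fluorescence polarization after adding binding solution; IC50 from four-parameter fit.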

[11] = HT1197 cells (MELK-negative control), 72 hours, read-out: IC50 (μM) (HTll97)
[12] = T47D cells, 72 hours, read-out: IC50 (μM) (T47D)
[13] = 22Rv1 cells, 72 hours, read-out: IC50 (μM) (22Rvl)
[14] = DU4475 cells, 72 hours, read-out: IC50 (μM) (DU4475)
[15] = A549 cells, 72 hours, read-out: IC50 (μM) (A549)

CC(=O)c1cnc2ccc(-c3cc(Cl)c(O)c(Cl)c3)nc2c1N[C@H]1CC[C@H](CN(C)C)CC1 [Example 6, 1-{6-(3,5-Dichloro-4-hydroxyphenyl)-4-({trans-4-[(dimethylamino)methyl]cyclohexyl}amino)-1,5-naphthyridin-3-yl}ethanone dihydrochloride]
IC50 ([1]; Homo sapiens, HT1197, 72 h, read-out: IC50 (μM) (HTll97)): 0.12 µM
IC50 ([1]; Homo sapiens, HT1197, read-out: IC50, in vitro anti-proliferative assay): 0.097 µM
Tumor growth suppressive effect [2]: no tumor growth suppressive effect
Tumor growth inhibition (TGI) [3]: 73% and 72%
IC50 ([4]; Homo sapiens, T47D, 72 h, read-out: IC50 (μM) (T47D)): 0.0053 µM
IC50 ([4]; Homo sapiens, T47D, read-out: IC50, in vitro anti-proliferative assay): 0.0043 µM
IC50 ([5]; Homo sapiens, 22Rv1, 72 h, read-out: IC50 (μM) (22Rvl)): 0.0052 µM
IC50 ([5]; Homo sapiens, 22Rv1, read-out: IC50, in vitro anti-proliferative assay): 0.006 µM
IC50 ([6]; Homo sapiens, DU-4475, 72 h, read-out: IC50 (μM) (DU4475)): 0.0033 µM
IC50 ([6]; Homo sapiens, DU-4475, read-out: IC50, in vitro anti-proliferative assay): 0.0023 µM
IC50 ([7]; Homo sapiens, A549, 72 h, read-out: IC50 (μM) (A549)): 0.0089 µM
IC50 ([7]; Homo sapiens, A549, read-out: IC50, in vitro anti-proliferative assay): 0.0067 µM
Tumor growth inhibition (TGI) [8]: 87%
Tumor growth inhibition (TGI) [9]: 106%

(R)-1-(4-{[6-(3-aminopiperidin-1- yl)pyridin-3-yl]amino}-6-(3,5- dichloro-4-hydroxyphenyl)-1,5- naphthyridin-3-yl)-2-methylpropan-1- one trihydrochloride [Example 215]
IC50 [1, 11]: 1.7 µM
IC50 [4, 12]: 0.016 µM
IC50 [5, 13]: 0.032 µM
IC50 [6, 14]: 0.014 µM
IC50 [7, 15]: 0.083 µM
IC50 [10]: 0.0065 µM

(S)-(4-{[6-(3-aminopiperidin-1- yl)pyridin-3-yl]amino}-6-(3-chloro-5- fluoro-4-hydroxyphenyl)-1,5- naphthyridin-3- yl)(cyclobutyl)methanone [Example 213]
IC50 [1, 11]: 1.7 µM
IC50 [4, 12]: 0.0043 µM
IC50 [5, 13]: 0.0071 µM
IC50 [6, 14]: 0.003 µM
IC50 [7, 15]: 0.029 µM
IC50 [10]: 0.0011 µM
